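Compound exposure: 48 hours, 5 concentrations, 96-well plates. GI50 is the concentration that inhibits growth by half. TGI denotes the concentration required for complete inhibition of growth.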
How the values were obtained:
Assay in all cases: inhibition of tumour cell growth, NCI panel, 48 h
U251 CNS = tested on: U251 CNS
MDA-MB-435 = tested on: MDA-MB-435
SF-539 CNS = tested on: SF-539 CNS
SK-MEL-5 melanoma = tested on: SK-MEL-5 melanoma
COLO 205 colon = tested on: COLO 205 colon
SK-MEL-28 melanoma = tested on: SK-MEL-28 melanoma
SF-295 CNS = tested on: SF-295 CNS
T-47D breast = tested on: T-47D breast
M14 melanoma = tested on: M14 melanoma
OVCAR-8 ovarian = tested on: OVCAR-8 ovarian
MOLT-4 leukemia = tested on: MOLT-4 leukemia
RXF 393 renal = tested on: RXF 393 renal
A498 renal = tested on: A498 renal
SW-620 colon = tested on: SW-620 colon
RPMI-8226 leukemia = tested on: RPMI-8226 leukemia
BT-549 breast = tested on: BT-549 breast
SNB-75 CNS = tested on: SNB-75 CNS
HL-60(TB) leukemia = tested on: HL-60(TB) leukemia
UACC-257 melanoma = tested on: UACC-257 melanoma
HS 578T breast = tested on: HS 578T breast
HCT-116 colon = tested on: HCT-116 colon
NCI-H460 lung = tested on: NCI-H460 lung
MDA-MB-231 breast = tested on: MDA-MB-231 breast
LOX IMVI melanoma = tested on: LOX IMVI melanoma
PC-3 prostate = tested on: PC-3 prostate
CCRF-CEM leukemia = tested on: CCRF-CEM leukemia
OVCAR-5 ovarian = tested on: OVCAR-5 ovarian
786-0 renal = tested on: 786-0 renal
HOP-62 NSCLC = tested on: HOP-62 NSCLC
SR leukemia = tested on: SR leukemia
HCT-15 colon = tested on: HCT-15 colon
TK-10 renal = tested on: TK-10 renal
NCI/ADR-RES ovarian = tested on: NCI/ADR-RES ovarian
HCC-2998 colon = tested on: HCC-2998 colon
IGROV1 ovarian = tested on: IGROV1 ovarian
EKVX NSCLC = tested on: EKVX NSCLC
SN12C renal = tested on: SN12C renal
NCI-H522 lung = tested on: NCI-H522 lung
MCF7 breast = tested on: MCF7 breast
KM12 colon = tested on: KM12 colon
UACC-62 melanoma = tested on: UACC-62 melanoma
CAKI-1 renal = tested on: CAKI-1 renal
HT29 colon = tested on: HT29 colon
ACHN renal = tested on: ACHN renal
NCI-H226 lung = tested on: NCI-H226 lung
SK-MEL-2 melanoma = tested on: SK-MEL-2 melanoma
SF-268 CNS = tested on: SF-268 CNS
OVCAR-3 ovarian = tested on: OVCAR-3 ovarian
OVCAR-4 ovarian = tested on: OVCAR-4 ovarian
SK-OV-3 ovarian = tested on: SK-OV-3 ovarian
HOP-92 NSCLC = tested on: HOP-92 NSCLC
UO-31 renal = tested on: UO-31 renal
A549 NSCLC = tested on: A549 NSCLC
MALME-3M melanoma = tested on: MALME-3M melanoma
DU-145 prostate = tested on: DU-145 prostate
SNB-19 CNS = tested on: SNB-19 CNS
NCI-H23 lung = tested on: NCI-H23 lung
K-562 leukemia = tested on: K-562 leukemia

## O=C(Nc1n[nH]c2cc(-c3ccc(F)cc3)ccc12)C1CC1
U251 CNS
  GI50: 10.2 µM
  TGI: > 25 µM
MDA-MB-435
  GI50: 2.31 µM
  TGI: 12.1 µM
SF-539 CNS
  GI50: 11.2 µM
  TGI: > 25 µM
SK-MEL-5 melanoma
  GI50: 5.56 µM
  TGI: > 18.1 µM
COLO 205 colon
  GI50: 8.12 µM
  TGI: > 18.8 µM
SK-MEL-28 melanoma
  GI50: 12.3 µM
  TGI: > 25 µM
SF-295 CNS
  GI50: 9.07 µM
  TGI: 24.6 µM
T-47D breast
  GI50: 6.37 µM
  TGI: > 21.7 µM
M14 melanoma
  GI50: 8.6 µM
  TGI: > 25 µM
OVCAR-8 ovarian
  GI50: 12.8 µM
  TGI: > 25 µM
MOLT-4 leukemia
  GI50: 10.4 µM
  TGI: > 25 µM
RXF 393 renal
  GI50: 5.73 µM
  TGI: > 22.6 µM
A498 renal
  GI50: 12.3 µM
  TGI: > 25 µM
SW-620 colon
  GI50: 7.69 µM
  TGI: > 25 µM
RPMI-8226 leukemia
  GI50: 8.44 µM
  TGI: > 25 µM
BT-549 breast
  GI50: 12.4 µM
  TGI: > 25 µM
SNB-75 CNS
  GI50: 11.1 µM
  TGI: > 25 µM
HL-60(TB) leukemia
  GI50: 6.69 µM
  TGI: 22.3 µM
UACC-257 melanoma
  GI50: 14.1 µM
  TGI: > 25 µM
HS 578T breast
  GI50: 10.7 µM
  TGI: > 25 µM
HCT-116 colon
  GI50: 8.89 µM
  TGI: > 25 µM
NCI-H460 lung
  GI50: 7.47 µM
  TGI: > 25 µM
MDA-MB-231 breast
  GI50: 12.6 µM
  TGI: > 25 µM
LOX IMVI melanoma
  GI50: 10.7 µM
  TGI: > 25 µM
PC-3 prostate
  GI50: 7.98 µM
  TGI: > 25 µM
CCRF-CEM leukemia
  GI50: 8.77 µM
  TGI: > 25 µM
OVCAR-5 ovarian
  GI50: 14.8 µM
  TGI: > 25 µM
786-0 renal
  GI50: 17.7 µM
  TGI: > 25 µM
HOP-62 NSCLC
  GI50: 8.37 µM
  TGI: > 23.7 µM
SR leukemia
  GI50: 2.76 µM
  TGI: > 25 µM
HCT-15 colon
  GI50: 5.7 µM
  TGI: > 25 µM
TK-10 renal
  GI50: > 20.8 µM
  TGI: > 25 µM
NCI/ADR-RES ovarian
  GI50: 5.27 µM
  TGI: 22.6 µM
HCC-2998 colon
  GI50: 8.27 µM
  TGI: > 25 µM
IGROV1 ovarian
  GI50: > 21.8 µM
  TGI: > 25 µM
EKVX NSCLC
  GI50: 12.2 µM
  TGI: > 25 µM
SN12C renal
  GI50: 10.8 µM
  TGI: > 25 µM
NCI-H522 lung
  GI50: 4.92 µM
  TGI: > 21.1 µM
MCF7 breast
  GI50: 5.54 µM
  TGI: > 22.2 µM
KM12 colon
  GI50: 4.11 µM
  TGI: > 25 µM
UACC-62 melanoma
  GI50: 12.6 µM
  TGI: > 25 µM
CAKI-1 renal
  GI50: 9.75 µM
  TGI: > 25 µM
HT29 colon
  GI50: 7.9 µM
  TGI: > 25 µM
ACHN renal
  GI50: 16.8 µM
  TGI: > 25 µM
NCI-H226 lung
  GI50: 9.29 µM
  TGI: > 25 µM
SK-MEL-2 melanoma
  GI50: 7.16 µM
  TGI: > 21.9 µM
SF-268 CNS
  GI50: 11 µM
  TGI: > 25 µM
OVCAR-3 ovarian
  GI50: 6.33 µM
  TGI: 20 µM
OVCAR-4 ovarian
  GI50: 9.87 µM
  TGI: > 25 µM
SK-OV-3 ovarian
  GI50: 6.24 µM
  TGI: 20.3 µM
HOP-92 NSCLC
  GI50: 23.3 µM
  TGI: > 25 µM
UO-31 renal
  GI50: 3.74 µM
  TGI: > 25 µM
A549 NSCLC
  GI50: 10.5 µM
  TGI: > 25 µM
MALME-3M melanoma
  GI50: 9.79 µM
  TGI: > 25 µM
DU-145 prostate
  GI50: 10.2 µM
  TGI: > 25 µM
SNB-19 CNS
  GI50: 12.6 µM
  TGI: > 25 µM
NCI-H23 lung
  GI50: 7.18 µM
  TGI: > 25 µM
K-562 leukemia
  GI50: 3.69 µM
  TGI: > 25 µM

— PubChem BioAssay (NCI)
